Experimental data as given in US8815881B2 (Hoffmann-La Roche Inc., priority 2010, dated 2014).

The compounds below were run against endogenous cellular BACE2 in the Ins1e rat cell line (Rattus norvegicus (Rat), UniProt Q6IE75) (assay: Assay for BACE inhibition by measuring cellular TMEM27 cleavage (ELISA of shed hTMEM27 from INS-TMEM27 cells)). Conditions: assay a): cellular TMEM27 cleavage, INS-TMEM27 cells (superscript a).
Type: cell-based
Text: a) Assay for BACE Inhibition by Measuring Cellular TMEM27 Cleavage:
The assay uses the principle of inhibition of human TMEM27 cleavage by endogenous cellular BACE2 in the Ins1e rat cell line and shedding from the cell surface into the culture medium, followed by detection in an ELISA assay. Inhibition of BACE2 prevents the cleavage and shedding in a dose-dependent manner.
The stable cell line “INS-TMEM27” represents an INS1e-derived cell line with inducible expression (using the TetOn system) of full-length hTMEM27 in a doxycycline-dependent manner. The cells are cultured throughout the experiment in RPMI1640+Glutamax (Invitrogen) Penicillin/Streptomycin, 10% Fetal bovine serum, […], […], 100 micrograms/ml G418 and 100 microgram/ml hygromycin and are grown inadherent culture at 37° C. in a standard CO2 cell culture incubator.
INS-TMEM27 cells are seeded in 96-well plates. After 2 days in culture, BACE2 inhibitor is added in a range of concentrations as required by the assay and after a further two hours, doxycycline is added to a final concentration of 500 ng/ml. The cells are incubated for a further 46 hours and the supernatant harvested for detection of shed TMEM27.
An ELISA assay (using a pair of mouse anti-human-TMEM27 antibodies, raised against the extracellular domain of TMEM27) is used for detection of TMEM27 in the culture medium. An EC50 for BACE2 inhibition is calculated using the ELISA readout for each inhibitor concentration with standard curve-fitting software such as XLFit for the Excel spreadsheet program.

Sequence of endogenous cellular BACE2 in the Ins1e rat cell line (Q6IE75 63-514): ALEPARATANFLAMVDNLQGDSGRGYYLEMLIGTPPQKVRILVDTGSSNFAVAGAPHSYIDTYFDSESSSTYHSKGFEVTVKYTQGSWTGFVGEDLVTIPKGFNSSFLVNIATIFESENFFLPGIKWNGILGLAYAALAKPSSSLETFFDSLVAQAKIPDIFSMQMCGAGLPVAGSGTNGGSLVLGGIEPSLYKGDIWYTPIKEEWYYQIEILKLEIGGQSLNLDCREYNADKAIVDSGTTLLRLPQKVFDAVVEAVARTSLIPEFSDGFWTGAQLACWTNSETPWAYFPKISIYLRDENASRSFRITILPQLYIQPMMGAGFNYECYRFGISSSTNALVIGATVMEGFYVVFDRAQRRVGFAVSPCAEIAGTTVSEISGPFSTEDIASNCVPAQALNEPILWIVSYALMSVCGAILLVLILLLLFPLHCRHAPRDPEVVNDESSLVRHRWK

Row | SMILES | IC50 [µM]
1 | CN1C(=O)C(C)(C)[C@@](C)(c2cccc(NC(=O)C3(C#N)CC3)c2)N=C1N [Example 1, 1-Cyano-cyclopropanecarboxylic acid [3-((R)-2-amino-1,4,5,5-tetramethyl-6-oxo-1,4,5,6-tetrahydro-pyrimidin-4-yl)-phenyl]-amide] | 0.057
2 | CN1C(=O)C(C)(C)[C@@](C)(c2cccc(NC(=O)C3(C(F)(F)F)CC3)c2)N=C1N [Example 2, 1-Trifluoromethyl-cyclopropanecarboxylic acid [3-((R)-2-amino-1,4,5,5-tetramethyl-6-oxo-1,4,5,6-tetrahydro-pyrimidin-4-yl)-phenyl]-amide] | 0.082
3 | CN1C(=O)C(C)(C)[C@@](C)(c2cc(NC(=O)C3(C(F)(F)F)CCC3)ccc2F)N=C1N [Example 4, 1-Trifluoromethyl-cyclobutanecarboxylic acid [3-((S)-2-amino-1,4,5,5-tetramethyl-6-oxo-1,4,5,6-tetrahydro-pyrimidin-4-yl)-4-fluoro-phenyl]-amide] | 0.085
4 | CN1C(=O)C(C)(C)[C@@](C)(c2cc(NC(=O)C(F)(F)C(F)(F)F)ccc2F)N=C1N [Example 6, N-[3-((S)-2-Amino-1,4,5,5-tetramethyl-6-oxo-1,4,5,6-tetrahydro-pyrimidin-4-yl)-4-fluoro-phenyl]-2,2,3,3,3-pentafluoro-propionamide] | 0.35
5 | CN1C(=O)C(C)(C)[C@@](C)(c2cc(NC(=O)C(C(F)(F)F)C(F)(F)F)ccc2F)N=C1N [Example 7, N-[3-((S)-2-Amino-1,4,5,5-tetramethyl-6-oxo-1,4,5,6-tetrahydro-pyrimidin-4-yl)-4-fluoro-phenyl]-3,3,3-trifluoro-2-trifluoromethyl-propionamide] | 1.01
6 | CN1C(=O)C(C)(C)[C@@](C)(c2cc(NC(=O)[C@H]3CC3(F)F)ccc2F)N=C1N [Example 9, (R)-2,2-Difluoro-cyclopropanecarboxylic acid [3-((S)-2-amino-1,4,5,5-tetramethyl-6-oxo-1,4,5,6-tetrahydro-pyrimidin-4-yl)-4-fluoro-phenyl]-amide] | 0.025
7 | C[C@@]1(c2cccc(NC(=O)C3(C(F)(F)F)CC3)c2)CC(=O)N(CC2CC2)C(N)=N1 [Example 13, 1-Trifluoromethyl-cyclopropanecarboxylic acid [3-((S)-2-amino-1-c-cyclopropylmethyl-4-methyl-6-oxo-1,4,5,6-tetrahydro-pyrimidin-4-yl)-phenyl]-amide] | 0.19
8 | CCC[C@@]1(c2cccc(NC(=O)C3(C(F)(F)F)CC3)c2)CC(=O)N(C)C(N)=N1 [Example 14, 1-Trifluoromethyl-cyclopropanecarboxylic acid [3-((S)-2-amino-1-methyl-6-oxo-4-propyl-1,4,5,6-tetrahydro-pyrimidin-4-yl)-phenyl]-amide] | 0.12
9 | CN1C(=O)C(C)(C)[C@@](C)(c2cc(NC(=O)C3CC3)ccc2F)N=C1N [Example 17, (S)—N-(3-(2-Amino-1,4,5,5-tetramethyl-6-oxo-1,4,5,6-tetrahydropyrimidin-4-yl)-4-fluorophenyl)cyclopropanecarboxamide] | 0.36
10 | CN1C(=O)C(C)(C)[C@@](C)(c2cc(NC(=O)C3CC3(C)C)ccc2F)N=C1N (stereo partly drawn) [Example 19, N-(3-((S)-2-Amino-1,4,5,5-tetramethyl-6-oxo-1,4,5,6-tetrahydropyrimidin-4-yl)-4-fluorophenyl)-2,2-dimethylcyclopropanecarboxamide] | 0.074
11 | COC(F)(C(=O)Nc1ccc(F)c([C@@]2(C)N=C(N)N(C)C(=O)C2(C)C)c1)C(F)(F)F (stereo partly drawn) [Example 20, N-(3-((S)-2-Amino-1,4,5,5-tetramethyl-6-oxo-1,4,5,6-tetrahydropyrimidin-4-yl)-4-fluorophenyl)-2,3,3,3-tetrafluoro-2-methoxypropanamide] | 0.066
12 | CC1CCC(Nc2ccc(F)c([C@@]3(C)N=C(N)N(C)C(=O)C3(C)C)c2)C1 (stereo partly drawn) [Example 24, (S)-2-Amino-6-[2-fluoro-5-(3-methyl-cyclopentylamino)-phenyl]-3,5,5,6-tetramethyl-5,6-dihydro-3H-pyrimidin-4-one] | 0.039
13 | CN1C(=O)C(C)(C)[C@@](C)(c2cc(NC(=O)CC3CCCC3)ccc2F)N=C1N [Example 26, (S)—N-(3-(2-amino-1,4,5,5-tetramethyl-6-oxo-1,4,5,6-tetrahydropyrimidin-4-yl)-4-fluorophenyl)-2-cyclopentylacetamide] | 0.274
14 | CN1C(=O)C(C)(C)[C@@](C)(c2cc(NC(=O)CC3CCC3)ccc2F)N=C1N [Example 27, (S)—N-(3-(2-amino-1,4,5,5-tetramethyl-6-oxo-1,4,5,6-tetrahydropyrimidin-4-yl)-4-fluorophenyl)-2-cyclobutylacetamide] | 0.157
15 | CN1C(=O)C(C)(C)[C@@](C)(c2cc(NC(=O)CC3CC3)ccc2F)N=C1N [Example 28, (S)—N-(3-(2-amino-1,4,5,5-tetramethyl-6-oxo-1,4,5,6-tetrahydropyrimidin-4-yl)-4-fluorophenyl)-2-cyclopropylacetamide] | 0.043

These reach a lower IC50. Values come first.

Row | IC50 [µM] | SMILES
16 | 0.023 | CN1C(=O)C[C@@](C)(c2cccc(NC(=O)C3(C(F)(F)F)CC3)c2)N=C1N [Example 12, 1-Trifluoromethyl-cyclopropanecarboxylic acid [3-((S)-2-amino-1,4-dimethyl-6-oxo-1,4,5,6-tetrahydro-pyrimidin-4-yl)-phenyl]-amide]
17 | 0.023 | CN1C(=O)C(C)(C)[C@@](C)(c2cc(NC(=O)C3(C)CC3)ccc2F)N=C1N [Example 18, (S)—N-(3-(2-Amino-1,4,5,5-tetramethyl-6-oxo-1,4,5,6-tetrahydropyrimidin-4-yl)-4-fluorophenyl)-1-methylcyclopropanecarboxamide]
18 | 0.014 | CC[C@H]1C(=O)N(C)C(N)=N[C@]1(C)c1cccc(NC(=O)C2(C(F)(F)F)CC2)c1 [Example 11, 1-Trifluoromethyl-cyclopropanecarboxylic acid [3-((4S,5R)-2-amino-5-ethyl-1,4-dimethyl-6-oxo-1,4,5,6-tetrahydro-pyrimidin-4-yl)-phenyl]-amide]
19 | 0.014 | CN1C(=O)C(C)(C)[C@@](C)(c2cc(NC3CCCC3)ccc2F)N=C1N [Example 21, (S)-2-Amino-6-(5-(cyclopentylamino)-2-fluorophenyl)-3,5,5,6-tetramethyl-5,6-dihydropyrimidin-4(3H)-one]
20 | 0.011 | CN1C(=O)C(C)(C)[C@@](C)(c2cc(NC(=O)CC(F)(F)F)ccc2F)N=C1N [Example 3, N-[3-((S)-2-Amino-1,4,5,5-tetramethyl-6-oxo-1,4,5,6-tetrahydro-pyrimidin-4-yl)-4-fluoro-phenyl]-3,3,3-trifluoro-propionamide]
21 | 0.011 | CN1C(=O)C(C)(C)[C@@](C)(c2cc(NC(=O)C3(C(F)(F)F)CC3)ccc2F)N=C1N [Example 5, 1-Trifluoromethyl-cyclopropanecarboxylic acid [3-((S)-2-amino-1,4,5,5-tetramethyl-6-oxo-1,4,5,6-tetrahydro-pyrimidin-4-yl)-4-fluoro-phenyl]-amide]
22 | 0.009 | CN1C(=O)C(C)(C)[C@@](C)(c2cc(NC(=O)C(O)C(F)(F)F)ccc2F)N=C1N (stereo partly drawn) [Example 8, N-[3-((S)-2-Amino-1,4,5,5-tetramethyl-6-oxo-1,4,5,6-tetrahydro-pyrimidin-4-yl)-4-fluoro-phenyl]-3,3,3-trifluoro-2-hydroxy-propionamide]
23 | 0.009 | CN1C(=O)C(C)(C)[C@@](C)(c2cc(NC(=O)C(C)(C)F)ccc2F)N=C1N [Example 16, (S)—N-(3-(2-Amino-1,4,5,5-tetramethyl-6-oxo-1,4,5,6-tetrahydropyrimidin-4-yl)-4-fluorophenyl)-2-fluoro-2-methylpropanamide]
24 | 0.007 | CN1C(=O)C[C@]2(CCc3ccc(NC(=O)C4(C(F)(F)F)CC4)cc32)N=C1N [Example 15, (S)—N-(2′-Amino-1′-methyl-6′-oxo-2,3,5′,6′-tetrahydro-1′H-spiro[indene-1,4′-pyrimidine]-6-yl)-1-(trifluoromethyl)cyclopropanecarboxamide]
25 | 0.007 | CCOC(=O)N1CCC(Nc2ccc(F)c([C@@]3(C)N=C(N)N(C)C(=O)C3(C)C)c2)C1 (stereo partly drawn) [Example 23, 3-[3-((S)-2-Amino-1,4,5,5-tetramethyl-6-oxo-1,4,5,6-tetrahydro-pyrimidin-4-yl)-4-fluoro-phenylamino]-pyrrolidine-1-carboxylic acid ethyl ester]
26 | 0.005 | CN1C(=O)C(C)(C)[C@@](C)(c2cc(NC3CCOC3)ccc2F)N=C1N (stereo partly drawn) [Example 22, (S)-2-Amino-6-[2-fluoro-5-(tetrahydro-furan-3-ylamino)-phenyl]-3,5,5,6-tetramethyl-5,6-dihydro-3H-pyrimidin-4-one]
27 | 0.004 | CC1CCCC1Nc1ccc(F)c([C@@]2(C)N=C(N)N(C)C(=O)C2(C)C)c1 (stereo partly drawn) [Example 25, (S)-2-Amino-6-[2-fluoro-5-(2-methyl-cyclopentylamino)-phenyl]-3,5,5,6-tetramethyl-5,6-dihydro-3H-pyrimidin-4-one]
28 | 0.002 | CN1C(=O)C(C)(C)[C@@](C)(c2cc(NC(=O)[C@@H]3CC3(F)F)ccc2F)N=C1N [Example 10, (S)-2,2-difluoro-cyclopropanecarboxylic acid [3-((S)-2-amino-1,4,5,5-tetramethyl-6-oxo-1,4,5,6-tetrahydro-pyrimidin-4-yl)-4-fluoro-phenyl]-amide]
